Experimental data as given in patent publication US6642241B1, “Alkylamino-substituted bicyclic nitrogen heterocycles” (Syntex (U.S.A.) LLC, priority 1999, dated 2003).
Counter-ions that a name gives are not always drawn.

A melting point of 188.8 to 191.4 °C was found for CCOC(=O)CN1C(=O)N(c2ccccc2Cl)Cc2cnc(NC(C)C)nc21 [Example 1d, 3-(2-chloro-phenyl)-1-ethoxycarbonylmethyl-7-isopropylamino-3,4-dihydropyrimido[4,5-d]pyrimidin-2(1H)-one] in this work.
A melting point of 172 to 188 °C was found for CC(C)Nc1ncc2c(n1)N(CC(=O)O)C(=O)N(c1ccccc1Cl)C2 [Example 1e, 3-(2-chloro-phenyl)-1-carboxymethyl-7-isopropylamino-3,4-dihydropyrimido[4,5-d]pyrimidin-2(1H)-one] in this work.
A melting point of 126 to 131.6 °C was found for COCCN1C(=O)N(c2ccccc2Cl)Cc2cnc(NC(C)C)nc21 (as salt: hydrochloride) [Example 2b, 3-(2-chloro-phenyl)-1-(2-methoxy-ethyl)-7-isopropylamino-3,4-dihydropyrimido[4,5-d]pyrimidin-2(1H)-one] in this work.
